Data: US20160082036A1, “HYDROXYALKYL STARCH FOR THE TREATMENT OF CANCERS BY REDUCTION OF TUMOR GROWTH RATES” (Fresenius Kabi Deutschland GmbH, priority 2012, published 2016)

What was measured:
[1] = system: human breast cell carcinoma line MT-3; assay: Example 5: MT-3 xenograft tumor growth, three studies with different HES types; assay type: in vivo
Description: In another set of three studies which were performed in analogy to the studies described above in Examples 1 and 2, more different HES types have been analysed in the same setting using the MT3 cell line mouse model.
Docetaxel (Taxotere®) was obtained from Sanofi-Aventis Deutschland GmbH, (Lot CHB D9C895; Berlin, Germany) and was stored in the dark at −20° C. until use. The injection solution was prepared immediately before use by dissolving in saline solution.
(§1) Hydroxyethyl starch compounds were obtained from Fresenius Kabi Deutschland GmbH on Dec. 7, 2012 and were stored at room temperature until use. The compounds each were dissolved in saline to obtain 10% w/v solutions. The application was 400 μl/20 g mouse body weight for saline and HES solutions, while Docetaxel was given in a volume of 10 ml/kg as slow bolus. The route of administration was intravenously for all mice.
(§2) Adult female NMRI:nu/nu mice (TACONIC Europe, Lille Skensved, Denmark) bred in the own (EPO) colony were used throughout the study. At the start of experiment they were 6-8 weeks of age.
The MT-3 cell line was used for subcutaneous (s.c.) xenotransplantation in immune deficient female NMRI:nu/nu mice. The MT-3 breast carcinoma cell line was obtained from the tumour bank of the National Cancer Institute of the former USSR, WONZ, Moscow.
The cells are cryo-preserved. Cells were thawed, expanded by in vitro culture and transplanted s.c. as cell suspension in female NMRI:nu/nu mice.
The number of 5×10^6 tumour cells was transplanted s.c into the flank of each mouse. The animals were monitored for tumour growth and when tumours were palpable, generally between day 7 and day 10 after transplantation, mice were randomised into the treatment groups with 15 mice each. Day 0 is defined as the day of first treatment.
Individual tumour diameters were measured twice weekly with a calliper-like instrument. Tumour volumes were calculated according to V=(length×(width)^2)/2. […] The relative tumour volume (RTV) and the treated to control (T/C RTV) values in percent were calculated for each measurement day in relation to V values at day 0.
(§3) In study 3 mice were sacrificed when the tumor size reached more than 1.5 cm^3, or the tumors ulcereted. Study 3 was finished when the mean TV was in most groups larger than 1.0 cm^3.
Mice were treated with i.v. injection of Docetaxel (Taxotere®) at day 0 and 14 at a dose of 40 mg/kg and with the hydroxyethyl starch compounds (20 ml/kg) once weekly.
In study 1 all mice developed tumours after s.c. transplantation of 5×10^6 MT-3 cells up to a size of 0.046±0.015 cm^3 within 7 days. Mice were treated intravenously with a dose of 40 mg/kg Docetaxel (Taxotere®) at days 0 and 14, whereas four different HES specifications in saline (containing each 10% w/v) were injected in a volume of 20 ml/kg i.v. weekly (day 0, 7, 14). Saline was injected once a week (20 ml/kg). All groups were treated during the whole experimental period accordingly to the planned schedule. The tumour of control mice in study 1 grew up to a volume of 1.1±0.6 cm^3.
In study 2 all mice developed tumours after s.c. transplantation of 5×10^6 MT-3 cells up to a size of 0.081±0.033 cm^3 within 9 days. Mice were treated intravenously with a dose of 40 mg/kg docetaxel at days 0 and 14, whereas four different HES specifications in saline (containing each 10% w/v) were injected in a volume of 20 ml/kg i.v. weekly (day 0, 7, 14). Saline was injected once per week (20 ml/kg). All groups were treated during the whole experimental period accordingly to the planned schedule. The tumour of control mice grew up until day 18 to a volume of 1.48±1.04 cm^3.
In study 3 all mice developed tumours after s.c. transplantation of 5×10^6 MT-3 cells up to a size of 0.059±0.018 cm3 within 7 days. […]

[2] = Example 2: body weight and blood parameters of MT-3 tumor-bearing mice; assay type: in vivo, NMRI:nu/nu mice
Description: Summary: Mice were either treated with a single i.v. injection of docetaxel (Taxotere®) at a dose of 25 mg/kg or with the plasma expander Voluven® (20 ml/kg) or with HES 100/1.0 (approx. 740 mg/kg) dissolved in saline/EtOH to determine tumor growth and body weight over the course of the experiment.
(§4) Adult female NMRI:nu/nu mice (TACONIC Europe, Lille Skensved, Denmark) bred in the own (EPO) colony were used throughout the study.
(§5) The application volume was 10 ml/kg (approx. 200 μl/20 g mouse) mouse body weight for vehicle, HES 100/1.0 and docetaxel and 20 ml/kg for Voluven®. The route of administration was by intravenous (i.v.) injection into the tail vein.
(§6) Individual body weights of mice were determined two times weekly and mean body weight per treatment group.
(§7) Blood samples were drawn from the retro-orbital sinus under iso-flurane anaesthesia three days after the treatment. Blood samples of 50-100 μl were taken into tubes prepared with EDTA for haematological parameters from a subset of each group (generally 30-50%). The following parameters were determined: total leucocyte count (WBC), erythrocyte count (RBC), haemoglobin (HGB), haematocrit (HCT), mean corpuscular volume (MCV), mean corpuscular haemoglobin (MCH), mean corpuscular haemoglobin concentration (MCHC) and platelet count (PLT) using a Coulter Counter instrument.
(§8) Statistical evaluation of was performed with the U-test of Mann and Whitney using the Windows program […] 6. A significance level of p<0.05 was used.

[3] = Example 1: body weight and blood parameters of MT-3 tumor-bearing mice; assay type: in vivo, NMRI:nu/nu mice
Description: Summary: Mice were either treated with a single i.v. injection of docetaxel (Taxotere®) at a dose of 25 mg/kg or with the plasma expander Voluven® (20 ml/kg) or with “HES 100/1.0” (approx. 740 mg/kg) dissolved in saline to determine tumor growth and body weight over the course of the experiment.
as §4, §5, §6, §7, §8

[4] = set-up: species or system NMRI:nu/nu mice; conditions: mouse, in vivo
Description: as §1, §2, §3
On the day of necropsy mice were sacrificed by cervical dislocation and inspected for gross organ changes.

[5] = blood drawn three days after single i.v. treatment

## CC(=O)O[C@@]12CO[C@@H]1C[C@H](O)[C@@]1(C)C(=O)[C@H](O)C3=C(C)[C@@H](OC(=O)[C@H](O)[C@@H](NC(=O)OC(C)(C)C)c4ccccc4)C[C@@](O)([C@@H](OC(=O)c4ccccc4)[C@H]21)C3(C)C [Docetaxel]
[1]; studies 1 to 3, compared to saline control, FIGS. 7, 9, 11
  tumour growth inhibition effect (in words): strong inhibitory effect on tumour growth
[1]; study 1
  RTV T/C: 14.4%
  inhibition of tumour growth: more than 85%
[1]; study 2
  RTV T/C: 16.9%
  inhibition of tumour growth: 83%
[1]; study 3, at day 7
  RTV T/C: 8.8%
  inhibition of tumour growth: 91%
[2]; after single i.v. treatment, FIG. 1
  body weight development (in words): Body weight loss
[2]; [5]
  Platelets × 10^6 at day 11: 1500 ± 156 × 10^6
  WBC × 10^6 at day 11: 4.80 ± 0.58 × 10^6
[3]; after single i.v. treatment, FIG. 3
  body weight development (in words): Body weight loss
[3]; after single i.v. treatment, table 5
  leucopenia (in words): slight but significant leucopoenia
[3]; [5]
  Platelets × 10^6 at day 10: 1418 ± 85 × 10^6
  WBC × 10^6 at day 10: 3.09 ± 0.76 × 10^6
[3]; compared to saline+EtOH treated group
  effect on platelet counts (in words): no significant effect on the platelet counts
[4]
  body weight (in words): moderate body weight loss
[4]; iv
  general toxicity, clinical sign (in words): apathy
